Values quoted from earlier work in patent US6689382B2, “Soft shell gelatin capsules containing non-steroidal anti-inflammatories” (priority 2002, dated 2004).

Experiments:
[1] = clinical trials
[2] = test system: COX-2 and COX-1; conditions: for selectivity for COX-1 and COX-2 (in words): conventional 1st generation NSAIDs; for ratio COX-2 IC50 divided by COX-1 IC50: in vitro, the smaller the ratio the more selective for COX-2

Cc1ccc(-c2cc(C(F)(F)F)nn2-c2ccc(S(N)(=O)=O)cc2)cc1 [celecoxib, Celecoxib]
anti-inflammatory activity [1]: effective anti-inflammatory activity
gastrointestinal adverse effects ([1]; compared to placebo): virtually no gastrointestinal adverse effects

CC(C)Cc1ccc(C(C)C(=O)O)cc1 (stereo not shown) [ibuprofen]
selectivity for COX-1 and COX-2 (in words) [2]: essentially non-selective

COc1ccc2c(c1)c(CC(=O)O)c(C)n2C(=O)c1ccc(Cl)cc1 [indomethacin]
ratio COX-2 IC50 divided by COX-1 IC50 [2]: about 30

CC(C(=O)O)c1cccc(C(=O)c2ccccc2)c1 (stereo not shown) [ketoprofen]
selectivity for COX-1 and COX-2 (in words) [2]: relatively COX-1 selective

COc1ccc2cc([C@H](C)C(=O)O)ccc2c1 [naproxen]
selectivity for COX-1 and COX-2 (in words) [2]: essentially non-selective

CN1C(C(=O)Nc2ccccn2)=C(O)c2ccccc2S1(=O)=O [piroxicam]
ratio COX-2 IC50 divided by COX-1 IC50 [2]: about 30
